Experimental data published in patent US9730940B2, “Purine inhibitors of human phosphatidylinositol 3-kinase delta” (priority 2012, dated 2017).

Target: PI3K-alpha (Homo sapiens (Human), UniProt P42336)
Experiment: HTRF PI3K biochemical assay, alpha isoform
Settings: ratio PI3K-alpha IC50 value/PI3K-delta IC50 value

Sequence of PI3K-alpha (P42336 whole entry, looked up, canonical isoform): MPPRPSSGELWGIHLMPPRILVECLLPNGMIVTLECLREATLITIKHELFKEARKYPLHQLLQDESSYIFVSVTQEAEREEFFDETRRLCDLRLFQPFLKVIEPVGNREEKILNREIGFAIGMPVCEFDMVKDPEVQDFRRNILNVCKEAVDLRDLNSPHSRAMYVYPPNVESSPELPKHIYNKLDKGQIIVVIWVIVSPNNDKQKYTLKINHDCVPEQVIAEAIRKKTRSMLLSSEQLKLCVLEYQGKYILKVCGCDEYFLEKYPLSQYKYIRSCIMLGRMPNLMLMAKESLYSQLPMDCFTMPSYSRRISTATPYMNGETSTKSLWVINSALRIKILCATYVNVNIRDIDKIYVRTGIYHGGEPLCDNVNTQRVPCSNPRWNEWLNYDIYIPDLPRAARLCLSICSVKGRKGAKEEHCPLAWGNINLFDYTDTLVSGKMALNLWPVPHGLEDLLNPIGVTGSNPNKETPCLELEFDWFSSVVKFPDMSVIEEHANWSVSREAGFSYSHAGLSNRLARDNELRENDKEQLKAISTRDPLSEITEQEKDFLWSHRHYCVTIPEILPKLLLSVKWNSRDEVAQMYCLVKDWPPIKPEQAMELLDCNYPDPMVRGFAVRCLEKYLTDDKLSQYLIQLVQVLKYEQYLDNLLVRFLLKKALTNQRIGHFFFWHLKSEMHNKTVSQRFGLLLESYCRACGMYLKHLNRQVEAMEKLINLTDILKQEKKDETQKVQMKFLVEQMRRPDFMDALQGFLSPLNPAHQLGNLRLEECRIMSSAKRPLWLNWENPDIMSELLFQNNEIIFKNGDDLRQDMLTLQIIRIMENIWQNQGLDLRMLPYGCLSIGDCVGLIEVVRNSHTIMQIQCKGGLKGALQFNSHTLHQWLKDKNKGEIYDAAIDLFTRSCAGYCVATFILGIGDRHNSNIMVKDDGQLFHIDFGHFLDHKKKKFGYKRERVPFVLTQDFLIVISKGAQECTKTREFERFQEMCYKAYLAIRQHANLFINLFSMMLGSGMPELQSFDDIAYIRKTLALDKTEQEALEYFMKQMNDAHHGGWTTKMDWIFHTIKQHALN
Sequence of PI3K-alpha (P27986 whole entry partner, looked up, canonical isoform): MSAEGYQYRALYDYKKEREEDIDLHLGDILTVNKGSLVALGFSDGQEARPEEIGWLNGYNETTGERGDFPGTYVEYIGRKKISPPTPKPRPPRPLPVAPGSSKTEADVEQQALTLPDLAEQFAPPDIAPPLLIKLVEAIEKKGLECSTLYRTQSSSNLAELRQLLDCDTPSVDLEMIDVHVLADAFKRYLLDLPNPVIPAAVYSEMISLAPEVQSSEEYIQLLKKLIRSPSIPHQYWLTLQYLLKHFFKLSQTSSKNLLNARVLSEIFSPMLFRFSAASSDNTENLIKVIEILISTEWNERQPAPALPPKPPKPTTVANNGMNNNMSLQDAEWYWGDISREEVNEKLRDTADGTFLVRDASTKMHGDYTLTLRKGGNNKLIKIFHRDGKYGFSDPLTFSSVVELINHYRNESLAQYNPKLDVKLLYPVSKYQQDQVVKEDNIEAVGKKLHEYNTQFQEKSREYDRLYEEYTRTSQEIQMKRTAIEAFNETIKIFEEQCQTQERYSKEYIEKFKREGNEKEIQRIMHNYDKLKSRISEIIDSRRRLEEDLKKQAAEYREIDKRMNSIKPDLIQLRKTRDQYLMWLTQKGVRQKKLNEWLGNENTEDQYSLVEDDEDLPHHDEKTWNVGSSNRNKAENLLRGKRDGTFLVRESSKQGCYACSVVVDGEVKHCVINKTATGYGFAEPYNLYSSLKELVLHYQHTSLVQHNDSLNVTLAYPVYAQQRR

| SMILES | Relative Selectivity versus PI3Kalpha |
| --- | --- |
| CCn1ncc(-c2nc3c(O[C@@H]4CCCN(C(=O)OC(C)(C)C)C4)ncnc3n2C)c1C [Compound 1-42, (R)-tert-butyl 3-((8-(1-ethyl-5-methyl-1H-pyrazol-4-yl)-9-methyl-9H-purin-6-yl)oxy)piperidine-1-carboxylate] | >2 |
| CCn1c(-c2cnc(C)nc2)nc2c(OC3CN(C(=O)C4CC4)CC3(F)F)ncnc21 (centres unmarked) [Compound 2-99, 6-{[1-(cyclopropylcarbonyl)-4,4-difluoropyrrolidin-3-yl]oxy}-9-ethyl-8-(2-methylpyrimidin-5-yl)-9H-purine] | >10 |
| Cn1c(-c2ccc(O)cc2)nc2c(O[C@H]3CCN(C(=O)OC(C)(C)C)C3)ncnc21 [Compound 1-18, tert-butyl (3S)-3-{[8-(4-hydroxyphenyl)-9-methyl-9H-purin-6-yl]oxy}pyrrolidine-1-carboxylate] | >10 |
| CCn1ncc(-c2nc3c(O[C@H]4CCN(C(=O)c5cc(C(F)(F)F)nn5C)C4)ncnc3n2C)c1C [Compound 2-61, 8-(1-ethyl-5-methyl-1H-pyrazol-4-yl)-9-methyl-6-{[(3S)-1-{[1-methyl-3-(trifluoromethyl)-1H-pyrazol-5-yl]carbonyl}pyrrolidin-3-yl]oxy}-9H-purine] | >10 |
| CCCn1c(-c2cnc(C)nc2)nc2c(O[C@H]3CCN(C(=O)CC)C3)ncnc21 [Compound 3-19, 8-(2-methylpyrimidin-5-yl)-6-{[(3S)-1-propanoylpyrrolidin-3-yl]oxy}-9-propyl-9H-purine] | >10 |
| CCn1c(-c2cnc(C(C)(C)C)s2)nc2c(O[C@H]3CCN(C(=O)OC(C)(C)C)C3)ncnc21 [Compound 1-35, tert-butyl (3S)-3-{[8-(2-tert-butyl-1,3-thiazol-5-yl)-9-ethyl-9H-purin-6-yl]oxy}pyrrolidine-1-carboxylate] | >10 |
| CCn1ncc(-c2nc3c(O[C@H]4CCN(C(=O)c5cn(C)nn5)C4)ncnc3n2C)c1C [Compound 2-44, 8-(1-ethyl-5-methyl-1H-pyrazol-4-yl)-9-methyl-6-({(3S)-1-[(1-methyl-1H-1,2,3-triazol-4-yl)carbonyl]pyrrolidin-3-yl}oxy)-9H-purine] | 9 |
| CCn1ncc(-c2nc3c(S[C@H]4CCN(C(=O)C5CCOCC5)C4)ncnc3n2C)c1C [Compound 10-3, (S)-(3-((8-(1-ethyl-5-methyl-1H-pyrazol-4-yl)-9-methyl-9H-purin-6-yl)thio)pyrrolidin-1-yl)(tetrahydro-2H-pyran-4-yl)methanone] | >10 |
| CCn1ncc(-c2nc3c(S[C@H]4CCN(C(=O)c5coc(C)n5)C4)ncnc3n2C)c1C [Compound 10-11, (S)-(3-((8-(1-ethyl-5-methyl-1H-pyrazol-4-yl)-9-methyl-9H-purin-6-yl)thio)pyrrolidin-1-yl)(2-methyloxazol-4-yl)methanone] | >10 |
| CCn1ncc(-c2nc3c(O[C@H]4CCN(C(=O)c5ccnc(C)c5)C4)ncnc3n2C)c1C [Compound 2-56, 8-(1-ethyl-5-methyl-1H-pyrazol-4-yl)-9-methyl-6-({(3S)-1-[(2-methylpyridin-4-yl)carbonyl]pyrrolidin-3-yl}oxy)-9H-purine] | >10 |
| CCC(=O)N1CC[C@H](Oc2ncnc3c2nc(-c2cnc(OC)c(F)c2)n3C)C1 [Compound 3-34, 8-(5-fluoro-6-methoxypyridin-3-yl)-9-methyl-6-{[(3S)-1-propanoylpyrrolidin-3-yl]oxy}-9H-purine] | >10 |
| CCn1ncc(-c2nc3c(OC4CCN(C(=O)CC5CCOCC5)C4)ncnc3n2C)c1C (centres unmarked) [Compound 2-6, 8-(1-ethyl-5-methyl-1H-pyrazol-4-yl)-9-methyl-6-{[1-(tetrahydro-2H-pyran-4-ylacetyl)pyrrolidin-3-yl]oxy}-9H-purine] | >10 |
| CCn1ncc(-c2nc3c(O[C@H]4CCN(C(=O)OC(C)(C)C)C4)ncnc3n2C)c1C [Compound 1-1, tert-butyl (3S)-3-{[8-(1-ethyl-5-methyl-1H-pyrazol-4-yl)-9-methyl-9H-purin-6-yl]oxy}pyrrolidine-1-carboxylate] | >10 |
| CCn1ncc(-c2nc3c(O[C@H]4CCN(C(=O)C5(C)CCOCC5)C4)ncnc3n2C)c1C [Compound 2-10, 8-(1-ethyl-5-methyl-1H-pyrazol-4-yl)-9-methyl-6-({(3S)-1-[(4-methyltetrahydro-2H-pyran-4-yl)carbonyl]pyrrolidin-3-yl}oxy)-9H-purine] | >10 |
| CCn1ncc(-c2nc3c(O[C@H]4CCN(c5nccn6cnnc56)C4)ncnc3n2C)c1C [Compound 7-6, 8-[(3S)-3-{[8-(1-ethyl-5-methyl-1H-pyrazol-4-yl)-9-methyl-9H-purin-6-yl]oxy}pyrrolidin-1-yl][1,2,4]triazolo[4,3-a]pyrazine] | >10 |
| CCC(=O)N1CC[C@H](Oc2ncnc3c2nc(-c2cnc(C)nc2)n3CC)C1 [Compound 2-25, 9-ethyl-8-(2-methylpyrimidin-5-yl)-6-{[(3S)-1-propanoylpyrrolidin-3-yl]oxy}-9H-purine] | >10 |

| SMILES | Relative Selectivity versus PI3Kalpha |
| --- | --- |
| CCn1c(-c2cnc(C)nc2)nc2c(O[C@H]3CCN(C(=O)C4CNC4)C3)ncnc21 [Compound 2-102, 6-{[(3S)-1-(azetidin-3-ylcarbonyl)pyrrolidin-3-yl]oxy}-9-ethyl-8-(2-methylpyrimidin-5-yl)-9H-purine] | >10 |
| CCn1c(-c2cnc(C)nc2)nc2c(O[C@H]3CCN(C(=O)N4CC(C)(OC)C4)C3)ncnc21 [Compound 5-21, 9-ethyl-6-({(3S)-1-[(3-methoxy-3-methylazetidin-1-yl)carbonyl]pyrrolidin-3-yl}oxy)-8-(2-methylpyrimidin-5-yl)-9H-purine] | >10 |
| CCn1c(-c2cnc(C)nc2)nc2c(O[C@H]3CCN(C(=O)C4CC4C(F)F)C3)ncnc21 (single isomer, unassigned) [Compound 2-125, 6-{[(3S)-1-{(1S,2S)- or (1R,2R)-[2-(difluoromethyl)cyclopropyl]carbonyl}pyrrolidin-3-yl]oxy}-9-ethyl-8-(2-methylpyrimidin-5-yl)-9H-purine] | >10 |
| CCC(=O)N1CC[C@H](Oc2ncnc3c2nc(Oc2cc(F)cc(OC)c2)n3C)C1 [Compound 12-2, 8-(3-fluoro-5-methoxyphenoxy)-9-methyl-6-{[(3S)-1-propanoylpyrrolidin-3-yl]oxy}-9H-purine] | >10 |
| CCn1ncc(-c2nc3c(O[C@H]4CCN(C(=O)c5cocn5)C4)ncnc3n2C)c1C [Compound 2-88, 8-(1-ethyl-5-methyl-1H-pyrazol-4-yl)-9-methyl-6-{[(3S)-1-(1,3-oxazol-4-ylcarbonyl)pyrrolidin-3-yl]oxy}-9H-purine] | >10 |
| CCn1ncc(-c2nc3c(S(=O)(=O)[C@H]4CCN(C(=O)C5CCOCC5)C4)ncnc3n2C)c1C [Compound 10-5, (S)-(3-((8-(1-ethyl-5-methyl-1H-pyrazol-4-yl)-9-methyl-9H-purin-6-yl)sulfonyl)pyrrolidin-1-yl)(tetrahydro-2H-pyran-4-yl)methanone] | 5 |
| Cn1c(-c2cncc3ccccc23)nc2c(O[C@H]3CCN(C(=O)OC(C)(C)C)C3)ncnc21 [Compound 1-28, tert-butyl (3S)-3-[(8-isoquinolin-4-yl-9-methyl-9H-purin-6-yl)oxy]pyrrolidine-1-carboxylate] | >10 |
| CCn1c(-c2cnc(C)nc2)nc2c(O[C@H]3CCN(c4nccs4)C3)ncnc21 [Compound 7-22, 9-ethyl-8-(2-methylpyrimidin-5-yl)-6-{[(3S)-1-(1,3-thiazol-2-yl)pyrrolidin-3-yl]oxy}-9H-purine] | >10 |
| CCC(=O)N1CC[C@H](Oc2ncnc3c2nc(CC(C)C)n3C)C1 [Compound 14-4, 9-methyl-8-(2-methylpropyl)-6-{[(3S)-1-propanoylpyrrolidin-3-yl]oxy}-9H-purine] | >10 |
| CCn1c(-c2cnc(C)nc2)nc2c(O[C@H]3CCN(C(=O)C4CC4CO)C3)ncnc21 (single isomer, unassigned) [Compound 2-130, (1S,2S)- or (1R,2R)-{[(3S)-3-{[9-ethyl-8-(2-methylpyrimidin-5-yl)-9H-purin-6-yl]oxy}pyrrolidin-1-yl]carbonyl}cyclopropyl)methanol] | >10 |
| CCn1ncc(-c2nc3c(O[C@H]4CCN(C(=O)c5cn[nH]c5)C4)ncnc3n2C)c1C [Compound 2-72, 8-(1-ethyl-5-methyl-1H-pyrazol-4-yl)-9-methyl-6-{[(3S)-1-(1H-pyrazol-4-ylcarbonyl)pyrrolidin-3-yl]oxy}-9H-purine] | 9 |
| CCn1ncc(-c2nc3c(O[C@H]4CCN(c5nccc6sccc56)C4)ncnc3n2C)c1C [Compound 7-3, 8-(1-ethyl-5-methyl-1H-pyrazol-4-yl)-9-methyl-6-{[(3S)-1-thieno[3,2-c]pyridin-4-ylpyrrolidin-3-yl]oxy}-9H-purine] | >10 |
| COc1ncc(-c2nc3c(O[C@H]4CCN(C(=O)OC(C)(C)C)C4)ncnc3n2C)cc1C [Compound 1-13, tert-butyl (3S)-3-{[8-(6-methoxy-5-methylpyridin-3-yl)-9-methyl-9H-purin-6-yl]oxy}pyrrolidine-1-carboxylate] | >10 |
| CCC(=O)N1CC[C@H](Oc2ncnc3c2nc(Oc2cccc(C)c2C)n3C)C1 [Compound 12-1, 8-(2,3-dimethylphenoxy)-9-methyl-6-{[(3S)-1-propanoylpyrrolidin-3-yl]oxy}-9H-purine] | 4 |
| CCn1ncc(-c2nc3c(O[C@H]4CCN(C(=O)c5oc(C)nc5C)C4)ncnc3n2C)c1C [Compound 2-58, 6-({(3S)-1-[(2,4-dimethyl-1,3-oxazol-5-yl)carbonyl]pyrrolidin-3-yl}oxy)-8-(1-ethyl-5-methyl-1H-pyrazol-4-yl)-9-methyl-9H-purine] | >10 |
| CCn1c(-c2cnc(C)nc2)nc2c(O[C@H]3C[C@H](NS(=O)(=O)CC)C3)ncnc21 [Compound 9-10, trans-N-(3-{[9-ethyl-8-(2-methylpyrimidin-5-yl)-9H-purin-6-yl]oxy}cyclobutyl) ethanesulfonamide] | >10 |
